Test results taken from ChEMBL document CHEMBL5058645, “Data for DCP probe JNJ-6204” (2022).

Tests used:
[1] = molecular target: Ephrin type-A receptor 7 (Homo sapiens) (UniProt Q15375); experiment: EphA7(h) Kinase panel; conditions: Compound concentration 1.0 uM, tested as the 2H-labelled form
[2] = molecular target: MAP/microtubule affinity-regulating kinase 3 (Homo sapiens) (UniProt P27448); experiment: MARK3(h) Kinase panel; conditions: Compound concentration 1.0 uM, tested as the 2H-labelled form
[3] = molecular target: BMP-2-inducible protein kinase (Homo sapiens) (UniProt Q9NSY1); experiment: BIKe(h) Kinase panel; conditions: Compound concentration 1.0 uM, tested as the 2H-labelled form
[4] = molecular target: Tyrosine-protein kinase Fes/Fps (Homo sapiens) (UniProt P07332); experiment: Fes(h) Kinase panel; conditions: Compound concentration 1.0 uM, tested as the 2H-labelled form
[5] = molecular target: Ephrin type-B receptor 1 (Homo sapiens) (UniProt P54762); experiment: EphB1(h) Kinase panel; conditions: Compound concentration 1.0 uM, tested as the 2H-labelled form
Chain of Ephrin type-B receptor 1 (Homo sapiens) (P54762 whole entry): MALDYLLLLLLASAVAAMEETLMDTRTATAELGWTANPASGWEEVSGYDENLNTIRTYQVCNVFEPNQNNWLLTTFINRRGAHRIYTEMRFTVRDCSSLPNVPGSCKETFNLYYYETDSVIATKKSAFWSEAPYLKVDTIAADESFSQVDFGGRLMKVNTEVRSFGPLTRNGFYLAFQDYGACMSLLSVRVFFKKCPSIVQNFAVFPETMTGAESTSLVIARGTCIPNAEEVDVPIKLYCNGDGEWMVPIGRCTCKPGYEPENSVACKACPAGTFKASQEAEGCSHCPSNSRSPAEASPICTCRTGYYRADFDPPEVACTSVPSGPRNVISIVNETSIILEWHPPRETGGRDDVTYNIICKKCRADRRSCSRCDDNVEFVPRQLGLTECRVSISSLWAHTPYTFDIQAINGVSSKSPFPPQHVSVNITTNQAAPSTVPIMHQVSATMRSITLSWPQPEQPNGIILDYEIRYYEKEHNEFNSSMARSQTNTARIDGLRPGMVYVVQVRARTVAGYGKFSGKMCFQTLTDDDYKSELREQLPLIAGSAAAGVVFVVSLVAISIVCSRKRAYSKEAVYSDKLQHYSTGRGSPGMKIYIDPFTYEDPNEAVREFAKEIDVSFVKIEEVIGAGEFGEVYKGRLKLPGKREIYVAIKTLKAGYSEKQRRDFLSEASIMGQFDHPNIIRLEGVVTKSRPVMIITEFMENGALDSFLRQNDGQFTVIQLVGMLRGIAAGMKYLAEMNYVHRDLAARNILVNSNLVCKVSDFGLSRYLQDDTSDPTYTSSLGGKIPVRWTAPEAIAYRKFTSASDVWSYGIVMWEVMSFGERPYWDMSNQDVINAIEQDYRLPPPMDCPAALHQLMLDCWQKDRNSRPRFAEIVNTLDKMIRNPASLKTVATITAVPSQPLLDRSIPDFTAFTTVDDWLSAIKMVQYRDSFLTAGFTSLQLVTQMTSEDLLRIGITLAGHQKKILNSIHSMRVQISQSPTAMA

[6] = molecular target: 5-hydroxytryptamine receptor 5A (Homo sapiens) (UniProt P47898); conditions: Compound concentration 10.0 uM, tested as the 2H-labelled form
[7] = molecular target: Serine/threonine-protein kinase PAK 6 (Homo sapiens) (UniProt Q9NQU5); experiment: PAK6(h) Kinase panel; conditions: Compound concentration 1.0 uM, tested as the 2H-labelled form
[8] = molecular target: Serine/threonine-protein kinase OSR1 (Homo sapiens) (UniProt O95747); experiment: OSR1(h) Kinase panel; conditions: Compound concentration 1.0 uM, tested as the 2H-labelled form
[9] = molecular target: Serine/threonine-protein kinase SIK1 (Homo sapiens) (UniProt P57059); experiment: SIK(h) Kinase panel; conditions: Compound concentration 1.0 uM, tested as the 2H-labelled form
[10] = molecular target: Serine/threonine-protein kinase MRCK gamma (Homo sapiens) (UniProt Q6DT37); experiment: MRCKgamma(h) Kinase panel; conditions: Compound concentration 1.0 uM, tested as the 2H-labelled form
[11] = molecular target: Serine/threonine-protein kinase 32A (Homo sapiens) (UniProt Q8WU08); experiment: STK32A(h) Kinase panel; conditions: Compound concentration 1.0 uM, tested as the 2H-labelled form
[12] = molecular target: Serine/threonine-protein kinase Nek4 (Homo sapiens) (UniProt P51957); experiment: NEK4(h) Kinase panel; conditions: Compound concentration 1.0 uM, tested as the 2H-labelled form
[13] = molecular target: Insulin-like growth factor 1 receptor (Homo sapiens) (UniProt P08069); experiment: IGF-1R(h), activated Kinase panel; conditions: Compound concentration 1.0 uM, tested as the 2H-labelled form
Chain of Insulin-like growth factor 1 receptor (Homo sapiens) (P08069 31-736 limits assumed): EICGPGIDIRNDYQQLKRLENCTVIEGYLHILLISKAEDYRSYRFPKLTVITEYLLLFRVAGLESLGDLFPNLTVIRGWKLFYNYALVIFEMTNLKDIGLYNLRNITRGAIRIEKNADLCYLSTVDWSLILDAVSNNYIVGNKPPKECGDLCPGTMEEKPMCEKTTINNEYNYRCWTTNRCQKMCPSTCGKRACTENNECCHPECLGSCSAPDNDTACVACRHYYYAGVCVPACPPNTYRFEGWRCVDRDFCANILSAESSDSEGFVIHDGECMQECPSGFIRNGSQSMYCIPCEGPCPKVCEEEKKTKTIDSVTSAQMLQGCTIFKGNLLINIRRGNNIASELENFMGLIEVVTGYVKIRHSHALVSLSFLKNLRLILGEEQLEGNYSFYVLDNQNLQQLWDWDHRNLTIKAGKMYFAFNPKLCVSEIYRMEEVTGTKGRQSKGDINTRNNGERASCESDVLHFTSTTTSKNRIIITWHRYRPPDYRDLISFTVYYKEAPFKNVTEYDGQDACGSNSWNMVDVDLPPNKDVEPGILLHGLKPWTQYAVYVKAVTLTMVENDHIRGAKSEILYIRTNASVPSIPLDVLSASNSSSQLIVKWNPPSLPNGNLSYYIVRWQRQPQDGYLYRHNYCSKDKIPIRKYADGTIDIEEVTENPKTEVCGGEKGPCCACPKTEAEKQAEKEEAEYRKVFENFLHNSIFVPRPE
Chain of Insulin-like growth factor 1 receptor (Homo sapiens) (P08069 741-1367 limits assumed): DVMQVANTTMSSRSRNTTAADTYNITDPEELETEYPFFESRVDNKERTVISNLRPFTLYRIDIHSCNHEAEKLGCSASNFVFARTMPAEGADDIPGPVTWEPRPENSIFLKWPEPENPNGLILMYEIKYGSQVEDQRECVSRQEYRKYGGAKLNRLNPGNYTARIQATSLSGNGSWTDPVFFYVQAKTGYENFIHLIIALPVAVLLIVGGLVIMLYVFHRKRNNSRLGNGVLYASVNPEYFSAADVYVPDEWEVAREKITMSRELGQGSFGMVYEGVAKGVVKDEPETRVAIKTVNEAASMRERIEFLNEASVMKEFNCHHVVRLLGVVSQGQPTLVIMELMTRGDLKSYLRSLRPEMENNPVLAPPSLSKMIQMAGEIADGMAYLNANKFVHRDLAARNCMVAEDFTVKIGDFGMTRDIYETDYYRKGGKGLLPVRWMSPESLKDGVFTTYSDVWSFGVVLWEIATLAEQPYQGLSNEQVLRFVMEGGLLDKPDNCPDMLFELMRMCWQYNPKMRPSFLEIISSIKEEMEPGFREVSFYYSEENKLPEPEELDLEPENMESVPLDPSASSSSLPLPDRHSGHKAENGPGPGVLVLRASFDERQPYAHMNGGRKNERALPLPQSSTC

[14] = molecular target: Dual specificity tyrosine-phosphorylation-regulated kinase 3 (Homo sapiens) (UniProt O43781); experiment: DYRK3(h) Kinase panel; conditions: Compound concentration 1.0 uM, tested as the 2H-labelled form
Chain of Dual specificity tyrosine-phosphorylation-regulated kinase 3 (Homo sapiens) (O43781 whole entry): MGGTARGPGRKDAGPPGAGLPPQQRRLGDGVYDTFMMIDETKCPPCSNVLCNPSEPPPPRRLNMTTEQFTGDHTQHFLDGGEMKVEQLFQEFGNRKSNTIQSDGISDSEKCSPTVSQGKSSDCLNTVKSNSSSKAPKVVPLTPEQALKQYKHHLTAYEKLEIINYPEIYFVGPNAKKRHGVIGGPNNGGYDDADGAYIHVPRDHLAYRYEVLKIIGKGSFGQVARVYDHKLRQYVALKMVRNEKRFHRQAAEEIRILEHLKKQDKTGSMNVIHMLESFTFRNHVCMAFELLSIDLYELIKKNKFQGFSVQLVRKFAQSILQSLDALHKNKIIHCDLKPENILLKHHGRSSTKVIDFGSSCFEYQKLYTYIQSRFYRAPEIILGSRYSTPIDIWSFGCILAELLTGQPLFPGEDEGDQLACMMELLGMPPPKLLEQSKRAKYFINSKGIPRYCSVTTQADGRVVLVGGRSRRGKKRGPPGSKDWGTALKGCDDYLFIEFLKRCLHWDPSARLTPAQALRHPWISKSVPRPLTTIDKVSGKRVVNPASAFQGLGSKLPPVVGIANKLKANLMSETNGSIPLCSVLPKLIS

[15] = molecular target: Sigma intracellular receptor 2 (Homo sapiens) (UniProt Q5BJF2); conditions: Compound concentration 10.0 uM, tested as the 2H-labelled form
Chain of Sigma intracellular receptor 2 (Homo sapiens) (Q5BJF2 whole entry): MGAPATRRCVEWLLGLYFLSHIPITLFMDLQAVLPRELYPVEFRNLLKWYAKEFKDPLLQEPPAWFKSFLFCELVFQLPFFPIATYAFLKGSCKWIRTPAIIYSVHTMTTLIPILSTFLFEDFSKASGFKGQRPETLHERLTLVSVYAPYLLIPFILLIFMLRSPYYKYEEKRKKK

[16] = molecular target: Serine/threonine-protein kinase MRCK alpha (Homo sapiens) (UniProt Q5VT25); experiment: MRCKalpha(h) Kinase panel; conditions: Compound concentration 1.0 uM, tested as the 2H-labelled form
[17] = molecular target: Muscarinic acetylcholine receptor M4 (Homo sapiens) (UniProt P08173); conditions: Compound concentration 10.0 uM, tested as the 2H-labelled form
[18] = molecular target: Mitogen-activated protein kinase 12 (Homo sapiens) (UniProt P53778); experiment: SAPK3(h) Kinase panel; conditions: Compound concentration 1.0 uM, tested as the 2H-labelled form
D(3) dopamine receptor = D(3) dopamine receptor (Homo sapiens, UniProt P35462); conditions: Compound concentration 10.0 uM, tested as the 2H-labelled form
[19] = molecular target: Mitogen-activated protein kinase kinase kinase 21 (Homo sapiens) (UniProt Q5TCX8); experiment: MLK4(h) Kinase panel; conditions: Compound concentration 1.0 uM, tested as the 2H-labelled form
Chain of Mitogen-activated protein kinase kinase kinase 21 (Homo sapiens) (Q5TCX8 whole entry): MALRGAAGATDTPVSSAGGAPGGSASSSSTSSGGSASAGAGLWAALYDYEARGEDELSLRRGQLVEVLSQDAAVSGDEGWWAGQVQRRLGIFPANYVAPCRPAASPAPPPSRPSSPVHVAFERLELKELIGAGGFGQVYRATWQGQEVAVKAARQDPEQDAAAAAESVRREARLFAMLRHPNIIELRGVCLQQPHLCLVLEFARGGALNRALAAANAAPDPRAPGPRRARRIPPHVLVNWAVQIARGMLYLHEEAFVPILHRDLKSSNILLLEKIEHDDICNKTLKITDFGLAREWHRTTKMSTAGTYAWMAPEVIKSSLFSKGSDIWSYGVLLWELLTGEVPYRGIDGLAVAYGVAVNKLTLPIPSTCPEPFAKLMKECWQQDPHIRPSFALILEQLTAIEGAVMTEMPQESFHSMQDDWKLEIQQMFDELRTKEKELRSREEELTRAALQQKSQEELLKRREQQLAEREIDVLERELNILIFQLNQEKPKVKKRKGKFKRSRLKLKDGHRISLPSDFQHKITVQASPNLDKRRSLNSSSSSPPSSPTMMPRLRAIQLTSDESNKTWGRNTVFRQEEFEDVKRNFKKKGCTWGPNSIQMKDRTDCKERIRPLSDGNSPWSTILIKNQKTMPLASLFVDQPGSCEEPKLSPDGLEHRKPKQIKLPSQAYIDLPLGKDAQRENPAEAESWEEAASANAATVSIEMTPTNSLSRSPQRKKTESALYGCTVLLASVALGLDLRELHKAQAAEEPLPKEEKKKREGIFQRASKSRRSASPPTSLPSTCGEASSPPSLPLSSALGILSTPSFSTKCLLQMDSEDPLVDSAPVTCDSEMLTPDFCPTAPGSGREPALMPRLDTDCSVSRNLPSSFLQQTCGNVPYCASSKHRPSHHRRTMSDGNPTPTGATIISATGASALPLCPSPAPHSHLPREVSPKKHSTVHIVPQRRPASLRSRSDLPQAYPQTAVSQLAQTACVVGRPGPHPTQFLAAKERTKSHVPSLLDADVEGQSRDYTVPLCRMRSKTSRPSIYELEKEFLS

[20] = molecular target: Mitogen-activated protein kinase kinase kinase kinase 4 (Homo sapiens) (UniProt O95819); experiment: MAP4K4(h) Kinase panel; conditions: Compound concentration 1.0 uM, tested as the 2H-labelled form
[21] = molecular target: 5-hydroxytryptamine receptor 1B (Homo sapiens) (UniProt P28222); conditions: Compound concentration 10.0 uM, tested as the 2H-labelled form
[22] = molecular target: Receptor-interacting serine/threonine-protein kinase 2 (Homo sapiens) (UniProt O43353); experiment: RIPK2(h) Kinase panel; conditions: Compound concentration 1.0 uM, tested as the 2H-labelled form
[23] = molecular target: Phosphatidylinositol 4,5-bisphosphate 3-kinase catalytic subunit delta isoform (Homo sapiens) (UniProt O00329); experiment: PI3 Kinase (p110d/p85a)(h) Kinase panel; conditions: Compound concentration 1.0 uM, tested as the 2H-labelled form
[24] = molecular target: Serine/threonine-protein kinase Nek2 (Homo sapiens) (UniProt P51955); experiment: NEK2(h) Kinase panel; conditions: Compound concentration 1.0 uM, tested as the 2H-labelled form
[25] = molecular target: Dual specificity protein kinase CLK3 (Homo sapiens) (UniProt P49761); experiment: CLK3(h) Kinase panel; conditions: Compound concentration 1.0 uM, tested as the 2H-labelled form
[26] = molecular target: Calcium/calmodulin-dependent protein kinase kinase 2 (Homo sapiens) (UniProt Q96RR4); experiment: CaMKK2(h) Kinase panel; conditions: Compound concentration 1.0 uM, tested as the 2H-labelled form
[27] = molecular target: Serine/threonine-protein kinase SIK2 (Homo sapiens) (UniProt Q9H0K1); experiment: SIK2(h) Kinase panel; conditions: Compound concentration 1.0 uM, tested as the 2H-labelled form
Chain of Serine/threonine-protein kinase SIK2 (Homo sapiens) (Q9H0K1 whole entry, looked up): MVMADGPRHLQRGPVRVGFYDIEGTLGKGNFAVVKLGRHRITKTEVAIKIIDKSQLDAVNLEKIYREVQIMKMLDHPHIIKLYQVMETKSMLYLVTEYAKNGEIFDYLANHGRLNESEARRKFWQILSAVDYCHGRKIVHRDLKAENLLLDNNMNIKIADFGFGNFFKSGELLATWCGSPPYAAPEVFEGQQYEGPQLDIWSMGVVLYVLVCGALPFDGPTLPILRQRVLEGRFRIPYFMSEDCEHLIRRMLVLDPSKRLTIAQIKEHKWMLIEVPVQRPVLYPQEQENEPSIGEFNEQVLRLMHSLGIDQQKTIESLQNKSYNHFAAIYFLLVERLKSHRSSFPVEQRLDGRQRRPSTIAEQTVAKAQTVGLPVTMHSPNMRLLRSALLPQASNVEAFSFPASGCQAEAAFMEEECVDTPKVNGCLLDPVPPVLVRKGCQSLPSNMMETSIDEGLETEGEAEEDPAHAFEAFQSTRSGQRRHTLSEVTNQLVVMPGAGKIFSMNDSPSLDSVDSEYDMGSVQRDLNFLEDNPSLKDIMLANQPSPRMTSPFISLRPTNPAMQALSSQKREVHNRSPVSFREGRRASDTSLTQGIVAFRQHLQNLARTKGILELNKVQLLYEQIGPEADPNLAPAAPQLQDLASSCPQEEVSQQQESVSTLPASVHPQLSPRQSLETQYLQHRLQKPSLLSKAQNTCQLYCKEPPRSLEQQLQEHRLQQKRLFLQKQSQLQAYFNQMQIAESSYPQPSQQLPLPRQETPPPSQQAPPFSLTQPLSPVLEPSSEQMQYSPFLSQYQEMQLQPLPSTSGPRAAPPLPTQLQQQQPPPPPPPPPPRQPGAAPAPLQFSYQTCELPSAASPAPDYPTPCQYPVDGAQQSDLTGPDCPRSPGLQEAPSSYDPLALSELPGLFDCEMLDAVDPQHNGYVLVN

[28] = molecular target: Bone morphogenetic protein receptor type-2 (Homo sapiens) (UniProt Q13873); experiment: BMPR2(h) Kinase panel; conditions: Compound concentration 1.0 uM, tested as the 2H-labelled form
[29] = molecular target: cAMP-dependent protein kinase catalytic subunit PRKX (Homo sapiens) (UniProt P51817); experiment: PrKX(h) Kinase panel; conditions: Compound concentration 1.0 uM, tested as the 2H-labelled form
[30] = molecular target: Calcium/calmodulin-dependent protein kinase type 1D (Homo sapiens) (UniProt Q8IU85); experiment: CaMKIdelta(h) Kinase panel; conditions: Compound concentration 1.0 uM, tested as the 2H-labelled form
[31] = molecular target: Serine/threonine-protein kinase tousled-like 1 (Homo sapiens) (UniProt Q9UKI8); experiment: TLK1(h) Kinase panel; conditions: Compound concentration 1.0 uM, tested as the 2H-labelled form
[32] = molecular target: Receptor-interacting serine/threonine-protein kinase 1 (Homo sapiens) (UniProt Q13546); experiment: RIPK1(h) Kinase panel; conditions: Compound concentration 1.0 uM, tested as the 2H-labelled form
[33] = molecular target: Serine/threonine-protein kinase Sgk3 (Homo sapiens) (UniProt Q96BR1); experiment: SGK3(h) Kinase panel; conditions: Compound concentration 1.0 uM, tested as the 2H-labelled form
[34] = molecular target: Alpha-2B adrenergic receptor (Homo sapiens) (UniProt P18089); conditions: Compound concentration 10.0 uM, tested as the 2H-labelled form
[35] = molecular target: Histamine H4 receptor (Homo sapiens) (UniProt Q9H3N8); conditions: Compound concentration 10.0 uM, tested as the 2H-labelled form
[36] = molecular target: Eukaryotic translation initiation factor 2-alpha kinase 3 (Homo sapiens) (UniProt Q9NZJ5); experiment: PEK(h) Kinase panel; conditions: Compound concentration 1.0 uM, tested as the 2H-labelled form
[37] = molecular target: Serine/threonine-protein kinase ICK (Homo sapiens) (UniProt Q9UPZ9); experiment: ICK(h) Kinase panel; conditions: Compound concentration 1.0 uM, tested as the 2H-labelled form
[38] = molecular target: 5-hydroxytryptamine receptor 2B (Homo sapiens) (UniProt P41595); conditions: Compound concentration 10.0 uM, tested as the 2H-labelled form
[39] = molecular target: 5-hydroxytryptamine receptor 6 (Homo sapiens) (UniProt P50406); conditions: Compound concentration 10.0 uM, tested as the 2H-labelled form
[40] = molecular target: Serine/threonine-protein kinase D1 (Homo sapiens) (UniProt Q15139); experiment: PKCmu (h) Kinase panel; conditions: Compound concentration 1.0 uM, tested as the 2H-labelled form
[41] = molecular target: Muscarinic acetylcholine receptor M1 (Homo sapiens) (UniProt P11229); conditions: Compound concentration 10.0 uM, tested as the 2H-labelled form
[42] = molecular target: Maternal embryonic leucine zipper kinase (Homo sapiens) (UniProt Q14680); experiment: MELK(h) Kinase panel; conditions: Compound concentration 1.0 uM, tested as the 2H-labelled form
[43] = molecular target: Testis-specific serine/threonine-protein kinase 4 (Homo sapiens) (UniProt Q6SA08); experiment: TSSK4(h) Kinase panel; conditions: Compound concentration 1.0 uM, tested as the 2H-labelled form
[44] = molecular target: Protein kinase C iota type (Homo sapiens) (UniProt P41743); experiment: PKCiota (h) Kinase panel; conditions: Compound concentration 1.0 uM, tested as the 2H-labelled form
[45] = molecular target: Cyclin-dependent kinase-like 4 (Homo sapiens) (UniProt Q5MAI5); experiment: CDKL4(h) Kinase panel; conditions: Compound concentration 1.0 uM, tested as the 2H-labelled form

Measured: inhibition

CC1(C)Cn2nc(-c3ccc(F)cn3)c(-c3ccnc4[nH]ncc34)c2CO1
inactive: [1] 8% | [2] -2% | [3] -8% | [4] 14% | [5] 3% | [6] 3.27% | [7] 5% | [8] 9% | [9] -9% | [10] 3% | [11] 9% | [12] 7% | [13] 1% | [14] 7% | [15] -3% | [16] 6% | [17] 1.83% | [18] 28% | D(3) dopamine receptor -0.66% | [19] 20% | [20] 21% | [21] 12.4% | [22] 2% | [23] 2% | [24] 6% | [25] -9% | [26] -9% | [27] 0% | [28] -7% | [29] 0% | [30] -1% | [31] 6% | [32] 5% | [33] 4% | [34] 2.83% | [35] 24.7% | [36] 11% | [37] 10% | [38] 6.01% | [39] -1.55% | [40] 13% | [41] -1.28% | [42] 9% | [43] 5% | [44] -2% | [45] 9%
